≈ marks a conversion by molar mass, not a printed value. Like-named read-outs stand apart in the source and are kept apart here. Marks after values point to notes of the source that are not given here.
Tests used:
[1] = tested on: B. cepcacia complex (not further speciated); assay: microbe, parasite or virus in culture; assay type: cell-based, Burkholderia cepacia complex; settings: Burkholderia cepacia
[2] = tested on: B. cenocepacia; assay: MIC testing of CF isolates; assay type: cell-based, Burkholderia cenocepacia; settings: strain AU197
[3] = tested on: P. aeruginosa and A. baumannii; assay: Broth microdilution MIC (Example 11); assay type: cell-based, Pseudomonas aeruginosa, Acinetobacter baumannii; settings: read-out: MIC values
[4] = tested on: S. aureus; assay: Broth microdilution MIC (Example 11); assay type: cell-based, Staphylococcus aureus
[5] = tested on: Candida albicans; assay: Antifungal broth microdilution (Example 13); assay type: cell-based; settings: Candida albicans, 24 h, read-out: MIC0, C. albicans MMX 7445, FLU-R, VORI-R, complete inhibition
[6] = tested on: Candida krusei; assay: Antifungal broth microdilution (Example 13); assay type: cell-based; settings: for MIC: Pichia kudriavzevii
[7] = tested on: Aspergillus spp.; assay: Antifungal broth microdilution (Example 13); assay type: cell-based, A. niger, A. terreus, A. fumigatus, A. flavus; settings: for MEC at 48 hr: complete inhibition (MIC0) not observed
[8] = assay type: in vivo, F344 rats; settings: rat, inhalation
Description: Inhalation Exposure: The initial exposure of BisEDT (Bismuth-1,2-ethanedithiol) was formulated as a […] at 100 mg/mL in suspension in 0.5% Tween 80, 10 mM sodium phosphate, pH 7.4, in NaCl (adjusted to approximately 300 mOsm). Aerosols were generated with a commercial compressed air jet nebulizer, Pad LC Plus, operated with an inlet pressure of 20 psi. The aerosols were transitioned into a rodent nose-only inhalation exposure system. The exposure system was operated with an inlet air flow of −5.2 L/min and an exhaust air flow of −5 L/min.

[9] = physchem; assay type: physicochemical
[10] = tested on: Gram-negative organisms (P. aeruginosa, E. coli, A. baumannii, H. influenzae); assay: Broth microdilution MIC with pulmonary surfactant (Survanta); assay type: cell-based; settings: evaluated organisms, 1-10% Survanta
[11] = tested on: MucilAir fully differentiated human airway epithelium
[12] = humans
[13] = tested on: CYP; settings: liver microsome (CYP) and hepatocyte
[14] = tested on: E. coli ATCC 25922; settings: cited from earlier work
[15] = tested on: P. aeruginosa; assay: Checkerboard FIC/FICI assay; assay type: cell-based, Pseudomonas aeruginosa; settings: during FIC testing
[16] = tested on: Klebsiella pneumoniae; assay: Broth microdilution MIC (Example 12); assay type: cell-based

## CC(S)C(C)S.[Bi] (stereo not shown) [BisBDT, bismuth-2,3-butanedithiol]
[1]; strain BC 9
  MIC: 0.5 µg/mL
[1]; strain PC 213
  MIC: 1 µg/mL
[2]
  MIC: 4 µg/mL
[3]
  MIC: 0.5 to 2 µg/mL
[4]; S. aureus MMX 5373, MRSA, Lev^R Cip^R CC^R Ery^R Ox^R
  MIC: ≤0.06 µg/mL
[4]; S. aureus MMX 6311, MRSA, Lev^R Cip^R CC^R Ery^R Ox^R
  MIC: ≤0.06 µg/mL
[4]; S. aureus MMX 9204, MRSA, Lev^R Cip^R Ery^R Ox^R
  MIC: ≤0.06 µg/mL
[4]; S. aureus MMX 9205, MRSA, Lev^R Cip^R CC^R Ery^R Ox^R
  MIC: ≤0.06 µg/mL
[4]; Staphylococcus aureus, ATCC 29213 / MSSA
  MIC: ≤ 0.06 µg/mL
[5]
  MIC: 2 µg/mL
[6]; C. krusei ATCC 6258, first of two values x/y (footnote b not given, matches MIC2 of Table 107)
  MIC 24 hr: 0.5 µg/mL
[6]; C. krusei ATCC 6258, second of two values x/y (footnote b not given, matches MIC0 of Table 107)
  MIC 24 hr: 1 µg/mL
[6]; C. krusei ATCC 6258, 48 hr, first of two values x/y (footnote b not given, presumably MIC2)
  MIC 48 hr: 1 µg/mL
[6]; C. krusei MMX 7125, Susceptible, 50% inhibition, read-out: MIC2
  MIC: 0.5 µg/mL
[6]; C. krusei MMX 7125, Susceptible, complete inhibition, read-out: MIC0
  MIC: 1 µg/mL
[6]; C. krusei MMX 7141, Susceptible, 50% inhibition, read-out: MIC2
  MIC: 1 µg/mL
[6]; C. krusei MMX 7141, Susceptible, complete inhibition, read-out: MIC0
  MIC: 2 µg/mL
[6]; C. krusei MMX 7155, Susceptible, 50% inhibition, read-out: MIC2
  MIC: 0.5 µg/mL
[6]; C. krusei MMX 7155, Susceptible, complete inhibition, read-out: MIC0
  MIC: 1 µg/mL
[6]; C. krusei MMX 7563, Susceptible, 50% inhibition, read-out: MIC2
  MIC: 0.5 µg/mL
[6]; C. krusei MMX 7563, Susceptible, complete inhibition, read-out: MIC0
  MIC: 1 µg/mL
[6]; C. krusei MMX 9878, MICA-I, VORI-I, 50% inhibition, read-out: MIC2
  MIC: 0.5 µg/mL
[6]; C. krusei MMX 9878, MICA-I, VORI-I, complete inhibition, read-out: MIC0
  MIC: 1 µg/mL
[6]; […], complete inhibition, read-out: MIC0
  MIC: 1 µg/mL
[6]; read-out: MIC2
  MIC: 0.5 µg/mL
[7]; 24 h, A. flavus ATCC 22546, complete inhibition, 24 hr, read-out: MIC0 24 hr
  MIC: 1 µg/mL
[7]; 24 h, A. flavus ATCC 204304, complete inhibition, 24 hr, read-out: MIC0 24 hr
  MIC: 4 µg/mL
[7]; 24 h, A. flavus MMX 7935, complete inhibition, 24 hr, read-out: MIC0 24 hr
  MIC: 8 µg/mL
[7]; 24 h, A. fumigatus ATCC 204305, complete inhibition, 24 hr, read-out: MIC0 24 hr
  MIC: 8 µg/mL
[7]; 24 h, A. fumigatus ATCC MYA-3626, complete inhibition, 24 hr, read-out: MIC0 24 hr
  MIC: 2 µg/mL
[7]; 24 h, A. fumigatus MMX 5934, complete inhibition, 24 hr, read-out: MIC0 24 hr
  MIC: 2 µg/mL
[7]; 24 h, A. fumigatus MMX 5939, complete inhibition, 24 hr, read-out: MIC0 24 hr
  MIC: 2 µg/mL
[7]; 24 h, A. terreus MMX 8229, complete inhibition, 24 hr, read-out: MIC0 24 hr
  MIC: 0.25 µg/mL
[7]; 48 h, A. flavus ATCC 22546, complete inhibition, 48 hr, read-out: MIC0 48 hr
  MIC: 2 µg/mL
[7]; 48 h, A. flavus MMX 7935, complete inhibition, 48 hr, read-out: MIC0 48 hr
  MIC: 8 µg/mL
[7]; 48 h, A. fumigatus ATCC MYA-3626, complete inhibition, 48 hr, read-out: MIC0 48 hr
  MIC: 4 µg/mL
[7]; 48 h, A. fumigatus MMX 5939, 48 hr, cell marked footnote b, read-out: MIC0 48 hr
  MIC: 4 µg/mL
[7]; 48 h, A. terreus MMX 8229, complete inhibition, 48 hr, read-out: MIC0 48 hr
  MIC: 1 µg/mL
[7]; A. flavus ATCC 204304, 48 hr
  MEC at 48 hr: 4/4^a μg/mL
[7]; A. flavus ATCC 204304, 48 hr, cells marked footnote c (not given; Table 109 gives the 48 hr results as MEC)
  MIC 48 hr: 4^c
[7]; A. fumigatus ATCC 204305, 48 hr
  MEC at 48 hr: 4 µg/mL
[7]; A. fumigatus ATCC MYA-3626, 24 hr
  MIC 24 hr: 2 µg/mL
[7]; A. fumigatus ATCC MYA-3626, 48 hr
  MIC 48 hr: 4 µg/mL
[7]; A. fumigatus MMX 5934, 48 hr
  MEC at 48 hr: 4 µg/mL
[7]; A. niger ATCC 29508, complete inhibition, […], read-out: MIC0 48 hr
  MIC: 2 µg/mL

## C1C[S][Bi]([S]CC[S][Bi]2[S]CC[S]2)[S]1 [BisEDT, Bismuth-1,2-ethanedithiol]
[8]; dose 47 μg/kg, 8 hr
  Mean BisEDT Conc, whole blood: 114 ng/mL
[8]; dose 47 μg/kg, 12 hr
  Mean BisEDT Conc, whole blood: 98 ng/mL
[8]; dose 47 μg/kg, 24 hr
  Mean BisEDT Conc, whole blood: 282 ng/mL
[8]; dose 47 μg/kg, 30 hr
  Mean BisEDT Conc, whole blood: 373 ng/mL
[8]; dose 124 μg/kg, 8 hr
  Mean BisEDT Conc, whole blood: 247 ng/mL
[8]; dose 124 μg/kg, 12 hr
  Mean BisEDT Conc, whole blood: 187 ng/mL
[8]; dose 124 μg/kg, 24 hr
  Mean BisEDT Conc, whole blood: 571 ng/mL
[8]; dose 124 μg/kg, 30 hr
  Mean BisEDT Conc, whole blood: 668 ng/mL
[8]; dose 400 μg/kg, 8 hr
  Mean BisEDT Conc, whole blood: 1701 ng/mL
[8]; dose 400 μg/kg, 12 hr
  Mean BisEDT Conc, whole blood: 1252 ng/mL
[8]; dose 400 μg/kg, 24 hr
  Mean BisEDT Conc, whole blood: 2700 ng/mL
[8]; dose 400 μg/kg, 30 hr
  Mean BisEDT Conc, whole blood: 2738 ng/mL
[8]; dose 3000 μg/kg, 1 hr
  Mean BisEDT Conc, whole blood: 485 ng/mL
[8]; dose 3000 μg/kg, 2 hr
  Mean BisEDT Conc, whole blood: 2504 ng/mL
[8]; dose 3000 μg/kg, 8 hr
  Mean BisEDT Conc, whole blood: 6570 ng/mL
[8]; dose 3000 μg/kg, 24 hr
  Mean BisEDT Conc, whole blood: 20525 ng/mL
[9]
  solubility: < 5 µg/mL
[10]
  effect of Survanta addition on MIC values: largely unaffected
[11]; BisEDT in solution, all tested concentrations and time points
  Morphology after exposure: No morphology changes were observed
[11]; solid in dextran, 3.33 μg/cm^2, 24 and 48 h
  Morphology after exposure: Cells were rounded and opaque at the periphery of inserts
[11]; solid in dextran, 0.033 and 0.33 μg/cm^2
  Morphology after exposure: No morphological modifications were observed
[11]; solid, 1 μg/cm^2, 1 hour and 8 hour
  Morphology after exposure: no important morphological changes were observed
[11]; solid, 1 μg/cm^2, 24 h
  Morphology after exposure: the epithelial cells on 2 inserts out of 3 were dead
[11]; solid, 1 μg/cm^2, 48 h
  Morphology after exposure: the epithelial cells on all 3 inserts were dead
[12]; 6 hours
  well-tolerated topical concentration: up to 2500 μg/cm^2
[12]; over 21 days continuous exposure, normal and abraded skin
  tolerated topical concentration: up to 75 μg/cm^2
[13]
  effect on liver cell metabolism (inhibition or induction of standard substrates): no significant effect
[14]; E. coli ATCC 25922, established QC range, 24 hr
  QC Range 24 hr: 0.5-4
[14]; control strain ATCC 25922
  Expected MIC: goal (acceptable range): 1 µg/mL

## C[C@@H](O)[C@H]1C(=O)N2C(C(=O)O)=C(S[C@@H]3CN[C@H](C(=O)N(C)C)C3)[C@H](C)[C@H]12 [MEM]
[15]; isolate 103 (ATCC 25922), each agent tested alone for QC, one replicate
  MIC: 1 µg/mL
[15]; isolate 6322
  MIC: 16 µg/mL
[15]; isolate 6977
  MIC: 8 µg/mL
[15]; isolate 7745
  MIC: 16 µg/mL
[15]; isolate 8798
  MIC: 32 µg/mL
[16]; K. pneumoniae ATCC BAA-1705, ATCC QC organism (Table 102)
  MIC: 8 µg/mL (≈ 20.9 µM)
[16]; K. pneumoniae ATCC BAA-1705, ESBL/KPC
  MIC: 8 µg/mL (≈ 20.9 µM)
[16]; K. pneumoniae CDC 112, KPC
  MIC: >8 µg/mL
[16]; K. pneumoniae CDC 113, ESBL/KPC
  MIC: >8 µg/mL
[16]; K. pneumoniae CDC 115, ESBL/KPC
  MIC: >8 µg/mL
[16]; K. pneumoniae CDC 120, ESBL/KPC
  MIC: >8 µg/mL
[16]; K. pneumoniae CDC 126, ESBL/KPC
  MIC: 4 µg/mL (≈ 10.4 µM)
[16]; K. pneumoniae CDC 129, ESBL/KPC
  MIC: 8 µg/mL (≈ 20.9 µM)
[16]; K. pneumoniae CDC 135, ESBL/VIM
  MIC: 1 µg/mL (≈ 2.61 µM)
[16]; K. pneumoniae CDC 138, ESBL/NDM
  MIC: >8 µg/mL
[16]; K. pneumoniae CDC 158, ESBL/NDM/OXA
  MIC: >8 µg/mL
[16]; K. pneumoniae MMX 9029, ESBL
  MIC: 0.015 µg/mL (≈ 0.0391 µM)

— patent US20230124862A1, “BISMUTH THIOL COMPOUNDS AND COMPOSITIONS AND METHODS OF TREATING MICROBIAL CO-INFECTIONS” (Microbion Corporation, priority 2020, published 2023)
